The source of these data is patent US6924302B2, “Substituted triazole diamine derivatives as kinase inhibitors” (Ortho McNeil Pharmaceutical, Inc., priority 2000, dated 2005).

Usually IC50 stands for the point on the concentration scale where inhibition reaches its midpoint.

SMILES strings stand for the structures. Where two headings read alike, the source gives them in different places.

The target in experiment [1] is T1, Calmodulin Kinase (calmodulin-dependent protein kinase 2) (Rattus norvegicus, UniProt P11275).
T1 construct: a truncated version of the alpha subunit of the rat protein; purchased New England Biolabs 6060; host or cells: insect cells
As to the kind of experiment: Kinase Selectivity Assay Calmodulin Kinase. The format is biochemical. The conditions noted are these: Kinase Selectivity, Tables 2a-2k; read-out: Calmodulin Kinase 2 IC50. In a few lines:
(§1)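 Reactions ran one hour at 30° C in 1% DMSO with enzyme diluted in 50 mM Tris-HCl pH 8.0, 0.1% BSA. Scintillation counting read ^33P incorporated into immobilized biotinylated peptide.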

Experiment [2] concerns the target T2, PDGF-R (platelet derived growth factor receptor) beta subunit kinase domain (Homo sapiens, UniProt P09619).
T2 construct: nucleotides 1874-3507 of the human PDGF-R beta subunit kinase domain; polyhistidine (N)
As to the kind of experiment: Kinase Selectivity Assay PDGF-R. The format is biochemical. The conditions noted are these: Kinase Selectivity, Tables 2a-2k; read-out: PDGF-R kinase IC50. The gist of the method: as §1

Experiment [3] has as its target T3, MAP Kinase (ERK-2 isoform) (Rattus norvegicus, UniProt P63086).
T3 construct: polyhistidine (N); host or cells: E. coli
As to the kind of experiment: Kinase Selectivity Assay MAP Kinase (ERK-2). The format is biochemical. The conditions noted are these: Kinase Selectivity, Tables 2a-2k; read-out: ERK 2 IC50. In a few lines:
as §1

The target of a further experiment is T4, CDK1:Cyclin-B (Homo sapiens, UniProt P06493).
T4 construct: purchased New England Biolabs 6020; host or cells: insect cells
In words: CDK1 Screening Assay. The note with it: read-out: CDK1 IC50. Type of experiment: biochemical. The gist of the method:
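Human CDK1:cyclin-B (30 ng/well) with biotinylated histone-H1 peptide and ^33P-γ-ATP, 1 h at 30° C, 1% DMSO, on streptavidin FlashPlate; incorporation read by scintillation.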

Experiment [4] addresses T5, Glycogen Synthase Kinase-3 (beta isoform) (Oryctolagus cuniculus, UniProt G1T8E2).
T5 construct: purchased New England Biolabs 6040; host or cells: E. coli
In words: Kinase Selectivity Assay Glycogen Synthase Kinase-3. The format is biochemical, rabbit. The note with it: Kinase Selectivity, Tables 2a-2k; read-out: GSK-3 IC50. In a few lines:
as §1

Where [5] appears, read: Kinase Selectivity, Tables 2a-2k.

T2 sequence (P09619 564-1106): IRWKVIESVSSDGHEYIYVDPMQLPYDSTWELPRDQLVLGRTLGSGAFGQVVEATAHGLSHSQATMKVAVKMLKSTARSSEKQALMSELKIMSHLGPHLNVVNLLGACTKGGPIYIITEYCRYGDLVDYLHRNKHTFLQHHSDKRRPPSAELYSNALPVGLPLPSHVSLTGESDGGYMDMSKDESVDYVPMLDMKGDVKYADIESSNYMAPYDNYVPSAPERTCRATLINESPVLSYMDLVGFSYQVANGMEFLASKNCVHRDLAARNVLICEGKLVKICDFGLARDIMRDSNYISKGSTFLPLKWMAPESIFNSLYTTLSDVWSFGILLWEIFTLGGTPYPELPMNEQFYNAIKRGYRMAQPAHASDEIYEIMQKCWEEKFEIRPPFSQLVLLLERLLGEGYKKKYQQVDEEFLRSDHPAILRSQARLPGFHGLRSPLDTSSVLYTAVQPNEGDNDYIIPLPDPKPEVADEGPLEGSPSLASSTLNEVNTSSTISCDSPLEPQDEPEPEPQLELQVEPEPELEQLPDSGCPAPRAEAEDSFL
T3 sequence (P63086 whole entry, canonical isoform): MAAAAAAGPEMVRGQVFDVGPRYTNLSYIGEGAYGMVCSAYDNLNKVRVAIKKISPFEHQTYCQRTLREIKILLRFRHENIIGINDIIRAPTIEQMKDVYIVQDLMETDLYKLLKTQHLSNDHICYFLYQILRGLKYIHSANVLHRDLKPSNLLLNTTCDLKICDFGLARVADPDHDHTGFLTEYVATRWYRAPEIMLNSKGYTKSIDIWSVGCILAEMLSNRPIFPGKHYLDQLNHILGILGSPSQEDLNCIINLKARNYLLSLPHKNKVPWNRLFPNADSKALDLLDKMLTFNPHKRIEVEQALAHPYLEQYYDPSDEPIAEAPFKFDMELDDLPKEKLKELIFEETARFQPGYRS
T4 sequence (P06493 whole entry): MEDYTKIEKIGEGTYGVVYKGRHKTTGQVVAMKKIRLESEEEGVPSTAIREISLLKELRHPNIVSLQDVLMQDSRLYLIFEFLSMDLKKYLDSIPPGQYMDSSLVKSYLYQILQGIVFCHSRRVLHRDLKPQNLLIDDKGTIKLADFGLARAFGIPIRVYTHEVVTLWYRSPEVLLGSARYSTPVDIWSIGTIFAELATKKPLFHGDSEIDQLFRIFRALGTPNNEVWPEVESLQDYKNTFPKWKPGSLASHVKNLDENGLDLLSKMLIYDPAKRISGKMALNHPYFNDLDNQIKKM
T4 sequence (P14635 whole entry partner): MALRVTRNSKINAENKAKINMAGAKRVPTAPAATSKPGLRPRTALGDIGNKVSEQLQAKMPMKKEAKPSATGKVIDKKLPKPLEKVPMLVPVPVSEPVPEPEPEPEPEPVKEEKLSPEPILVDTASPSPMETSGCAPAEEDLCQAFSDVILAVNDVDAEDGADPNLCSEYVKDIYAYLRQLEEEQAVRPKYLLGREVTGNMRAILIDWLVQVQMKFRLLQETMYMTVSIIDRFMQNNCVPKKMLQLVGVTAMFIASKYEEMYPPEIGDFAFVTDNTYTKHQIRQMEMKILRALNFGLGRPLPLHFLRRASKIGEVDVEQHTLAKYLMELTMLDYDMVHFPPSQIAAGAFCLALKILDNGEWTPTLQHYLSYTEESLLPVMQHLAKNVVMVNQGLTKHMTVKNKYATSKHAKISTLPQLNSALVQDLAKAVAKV
T5 sequence (G1T8E2 1-432): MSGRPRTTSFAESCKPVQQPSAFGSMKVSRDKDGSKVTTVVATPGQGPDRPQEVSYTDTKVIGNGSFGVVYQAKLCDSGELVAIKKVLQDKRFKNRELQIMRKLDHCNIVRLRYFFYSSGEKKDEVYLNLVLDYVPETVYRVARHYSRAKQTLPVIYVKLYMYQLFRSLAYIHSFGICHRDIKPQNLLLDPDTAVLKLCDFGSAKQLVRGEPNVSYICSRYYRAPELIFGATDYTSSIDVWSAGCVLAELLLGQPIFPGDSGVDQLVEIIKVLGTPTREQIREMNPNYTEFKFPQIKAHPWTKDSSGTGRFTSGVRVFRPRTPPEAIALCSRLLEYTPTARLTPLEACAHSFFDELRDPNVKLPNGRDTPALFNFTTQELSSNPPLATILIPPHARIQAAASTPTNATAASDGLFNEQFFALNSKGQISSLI

For the molecule `CCc1ccc(C(=O)n2nc(Nc3ccc(S(=O)(=O)NC)cc3)nc2N)s1` [Cpd 84, 4-[[5-amino-1-[(5-ethyl-2-thienyl)carbonyl]-1H-1,2,4-triazol-3-yl]amino]-N-methyl-benzenesulfonamide], the half-maximal inhibitory concentration (IC50) in experiment [1] is more than 100000 nM; in experiment [2], 280 nM; in experiment [3], 1220 nM; at CDK1:Cyclin-B (setting [5]), 4 nM; on CDK1:Cyclin-B (Table 1), 3.8 nM; in experiment [4], 19 nM.

With `CCc1ccc(C(=O)n2nc(Nc3ccc(S(=O)(=O)NCCN(C)C)cc3)nc2N)s1` [Cpd 103, 4-[[5-amino-1-[(5-ethyl-2-thienyl)carbonyl]-1H-1,2,4-triazol-3-yl]amino]-N-[2-(dimethylamino)ethyl]-benzenesulfonamide], the IC50 in experiment [1] is more than 100000 nM; in experiment [2] it was 702 nM; in experiment [3], 845 nM; at CDK1:Cyclin-B (setting [5]), 7 nM; at CDK1:Cyclin-B (Table 1) it was 7.4 nM; in experiment [4], 13 nM.

Turning to `Cc1ccsc1C(=O)n1nc(Nc2ccc(S(=O)(=O)NCCN(C)C)cc2)nc1N` [Cpd 104, 4-[[5-amino-1-[(3-methyl-2-thienyl)carbonyl]-1H-1,2,4-triazol-3-yl]amino]-N-[2-(dimethylamino)ethyl]-benzenesulfonamide], the 50% inhibitory concentration (IC50) in experiment [1] was more than 10000 nM; in experiment [2], 192 nM; in experiment [3], more than 100000 nM; at CDK1:Cyclin-B (setting [5]), 1.6 nM; at CDK1:Cyclin-B (Table 1) it was 15.6 nM; in experiment [4] it was 20 nM.

For the molecule `Cc1cc(C)c(C(=O)n2nc(Nc3ccc(NS(C)(=O)=O)cc3)nc2N)s1` [Cpd 108, N-[4-[[5-amino-1-[(3,5-dimethyl-2-thienyl)carbonyl]-1H-1,2,4-triazol-3-5 yl]amino]phenyl]-methanesulfonamide], the IC50 in experiment [1] was more than 10000 nM; in experiment [2] it was 217 nM; in experiment [3] it was 2390 nM; on CDK1:Cyclin-B (setting [5]), 66 nM; on CDK1:Cyclin-B (Table 1), 65.7 nM; in experiment [4] it was 23 nM.

Consider `Cc1ccsc1C(=O)n1nc(Nc2ccc(N3CCNC3=O)cc2)nc1N` [Cpd 113, 1-[4-[[5-amino-1-[(3-methyl-2-thienyl)carbonyl]-1H-1,2,4-triazol-3-yl]amino]phenyl]-2-imidazolidinone], for which the IC50 is more than 10000 nM in experiment [1]; 370 nM in experiment [2]; more than 100000 nM in experiment [3]; 254 nM at CDK1:Cyclin-B (setting [5]); 254 nM on CDK1:Cyclin-B (Table 1); 71 nM in experiment [4].

In the case of `Cc1ccsc1C(=O)n1nc(Nc2ccc(N3CCCS3(=O)=O)cc2)nc1N` [Cpd 116, N^3-[4-(1,1-dioxido-2-isothiazolidinyl)phenyl]-1-[(3-methyl-2-thienyl)carbonyl]-1H-1,2,4-triazole-3,5-diamine], the IC50 in experiment [1] was more than 100000 nM; in experiment [2], 302 nM; in experiment [3], more than 100000 nM; at CDK1:Cyclin-B (setting [5]), 21 nM; on CDK1:Cyclin-B (Table 1), 20.8 nM; in experiment [4] it was 62 nM.

Turning to `Nc1nc(Nc2ccc(S(=O)(=O)Nc3ccccn3)cc2)nn1C(=O)c1c(F)cccc1F` [Cpd 118, 4-[[5-amino-1-(2,6-difluorobenzoyl)-1H-1,2,4-triazol-3-yl]amino]-N-(2-pyridinyl)-benzenesulfonamide], the IC50 was more than 100000 nM in experiment [1]; more than 100000 nM in experiment [2]; more than 100000 nM in experiment [3]; 330 nM at CDK1:Cyclin-B (setting [5]); 330 nM on CDK1:Cyclin-B (Table 1); 159 nM in experiment [4].

Regarding `Cc1cc(C)c(C(=O)n2nc(Nc3ccc(S(=O)(=O)Nc4ccccn4)cc3)nc2N)s1` [Cpd 120], the IC50 was more than 100000 nM in experiment [1]; 822 nM in experiment [2]; more than 100000 nM in experiment [3]; 277 nM at CDK1:Cyclin-B (setting [5]); 277 nM on CDK1:Cyclin-B (Table 1); 18 nM in experiment [4].

Turning to `Cc1ccc(F)c(C(=O)n2nc(N)nc2Nc2ccc(S(N)(=O)=O)cc2)c1F` [Cpd 123, 4-[[3-amino-1-(2,6-difluoro-3-methylbenzoyl)-1H-1,2,4-triazol-5-yl]amino]-benzenesulfonamide], the IC50 in experiment [1] is more than 100000 nM; in experiment [2], more than 100000 nM; in experiment [3], more than 100000 nM; on CDK1:Cyclin-B (setting [5]), 2050 nM; on CDK1:Cyclin-B (Table 1), 2050 nM; in experiment [4] it was 3010 nM.
